# Measurements reported in patent US10947289B2, “Glyco-modified atrial natriuretic peptide” (priority 2013, dated 2021).
# Like-named read-outs stand apart in the source and are kept apart here.
# Target: T1, human GC-A (Homo sapiens, UniProt P16066)
# T1 construct: expressed in transfected cells; host or cells: CHO cells
# T1 sequence (P16066 33-1061): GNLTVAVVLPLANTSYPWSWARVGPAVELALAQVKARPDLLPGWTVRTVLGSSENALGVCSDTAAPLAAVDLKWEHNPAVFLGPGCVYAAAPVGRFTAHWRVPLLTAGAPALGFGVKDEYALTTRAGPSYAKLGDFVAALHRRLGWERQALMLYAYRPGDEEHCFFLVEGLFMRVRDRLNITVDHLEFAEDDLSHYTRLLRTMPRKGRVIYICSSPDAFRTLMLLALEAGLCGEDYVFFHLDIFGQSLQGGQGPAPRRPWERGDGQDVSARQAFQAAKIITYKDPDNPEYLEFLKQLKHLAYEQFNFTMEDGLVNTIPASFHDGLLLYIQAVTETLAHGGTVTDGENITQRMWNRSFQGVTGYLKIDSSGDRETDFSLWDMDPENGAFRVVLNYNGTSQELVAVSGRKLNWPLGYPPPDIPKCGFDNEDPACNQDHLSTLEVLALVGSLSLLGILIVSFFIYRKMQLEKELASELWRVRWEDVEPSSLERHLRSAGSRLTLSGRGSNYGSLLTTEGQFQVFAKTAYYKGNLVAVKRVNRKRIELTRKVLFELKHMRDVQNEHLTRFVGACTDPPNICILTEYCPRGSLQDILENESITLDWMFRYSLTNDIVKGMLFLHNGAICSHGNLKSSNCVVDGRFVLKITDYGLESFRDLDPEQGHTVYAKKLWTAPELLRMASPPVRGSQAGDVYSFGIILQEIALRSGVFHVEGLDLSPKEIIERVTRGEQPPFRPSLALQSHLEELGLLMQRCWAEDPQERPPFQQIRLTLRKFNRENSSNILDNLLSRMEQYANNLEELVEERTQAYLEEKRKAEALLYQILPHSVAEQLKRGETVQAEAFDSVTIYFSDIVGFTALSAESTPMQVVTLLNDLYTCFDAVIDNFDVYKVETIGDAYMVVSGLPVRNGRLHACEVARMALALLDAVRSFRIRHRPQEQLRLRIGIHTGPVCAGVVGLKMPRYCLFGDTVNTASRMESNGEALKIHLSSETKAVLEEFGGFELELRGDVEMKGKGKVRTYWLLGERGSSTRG
# Experiment: cGMP elevating activity in CHO/human GC-A cells (Test Example 1)
# Format: cell-based
# Procedure: The cGMP elevating activity of each modified peptide prepared in Example 2 was measured by the following method:
# CHO/human GC-A cells, which are CHO cells constitutively expressing human GC-A, were suspended at 2×10^5 cells/ml in α-MEM, 10% FBS, and 1% penicillin-streptomycin, inoculated at 20 μl/well (4×10^3 cells/well) onto a 384-well plate (Corning, 3826), and cultured overnight in a CO2 incubator. On the next day, the medium was removed from this plate, and then, 1.6 mM IBMX/KRB buffer was added thereto at 10 μl/well. The mixture was stirred on a plate shaker and then incubated at room temperature for 10 minutes. […] The mixture was stirred on a plate shaker and then incubated for 15 minutes in a CO2 incubator. Thereafter, a lysis buffer (50 mM phosphate buffer, pH 7.0, and 1% Triton X-100) was added thereto at 5 μl/well. The cells were lysed by stirring for 10 minutes on a plate shaker. Subsequently, the cGMP levels in the cell lysates were measured by use of a cGMP kit (manufactured by Cisbio Bioassays). Specifically, to a 384-well plate (Greiner, 784076), 5 μl/well of a diluent attached to the kit, 5 μl/well of the cell lysate, 5 μl/well of cGMP-d2, and 5 μl/well of anti cGMP-Cryptate were added. The mixture was stirred on a plate shaker and then incubated overnight at 4° C. in the dark, followed by the measurement of homogeneous time-resolved fluorescence using RubyStar (manufactured by BMG LABTECH JAPAN Ltd.). The activity value (T/C) of the test substance at each concentration was calculated when the activity value of a well supplemented with only a solvent was defined as 0 and the activity value of a well supplemented with 1 nM ANP was defined as 1.
Molecule,EC50 [nM],"EC50 (CHO/human GC-A cells, concentration at T/C=0.5, 15 minutes incubation, read-out: EC50) [nM]","Emax (maximum T/C in range 0.01-100 nM, solvent only = 0, 1 nM ANP = 1)"
"CC[C@H](C)[C@@H]1NC(=O)[C@H](CCCNC(=N)N)NC(=O)[C@H](CC(=O)O)NC(=O)[C@H](CCSC)NC(=O)[C@H](CCCNC(=N)N)NC(=O)CNC(=O)CNC(=O)[C@H](Cc2ccccc2)NC(=O)[C@@H](NC(=O)[C@H](CO)NC(=O)[C@H](CO)NC(=O)[C@H](CCCNC(=N)N)NC(=O)[C@H](CCCNC(=N)N)NC(=O)[C@H](CC(C)C)NC(=O)[C@H](CO)NC(=O)CCOCCOCCOCCOCCNC(=O)CCSC2CC(=O)N(CCC(=O)N[C@@H](CCC(=O)NCCO[C@@H]3O[C@H](CO)[C@@H](O[C@@H]4O[C@H](CO)[C@@H](O[C@@H]5O[C@H](CO[C@H]6O[C@H](CO)[C@@H](O)[C@H](O)[C@@H]6O[C@@H]6O[C@H](CO)[C@@H](O[C@@H]7O[C@H](CO[C@]8(C(=O)O)C[C@H](O)[C@@H](NC(C)=O)[C@H]([C@H](O)[C@H](O)CO)O8)[C@H](O)[C@H](O)[C@H]7O)[C@H](O)[C@H]6NC(C)=O)[C@@H](O)[C@H](O[C@H]6O[C@H](CO)[C@@H](O)[C@H](O)[C@@H]6O[C@@H]6O[C@H](CO)[C@@H](O[C@@H]7O[C@H](CO[C@]8(C(=O)O)C[C@H](O)[C@@H](NC(C)=O)[C@H]([C@H](O)[C@H](O)CO)O8)[C@H](O)[C@H](O)[C@H]7O)[C@H](O)[C@H]6NC(C)=O)[C@@H]5O)[C@H](O)[C@H]4NC(C)=O)[C@H](O)[C@H]3NC(C)=O)C(=O)NCCO[C@@H]3O[C@H](CO)[C@@H](O[C@@H]4O[C@H](CO)[C@@H](O[C@@H]5O[C@H](CO[C@H]6O[C@H](CO)[C@@H](O)[C@H](O)[C@@H]6O[C@@H]6O[C@H](CO)[C@@H](O[C@@H]7O[C@H](CO[C@]8(C(=O)O)C[C@H](O)[C@@H](NC(C)=O)[C@H]([C@H](O)[C@H](O)CO)O8)[C@H](O)[C@H](O)[C@H]7O)[C@H](O)[C@H]6NC(C)=O)[C@@H](O)[C@H](O[C@H]6O[C@H](CO)[C@@H](O)[C@H](O)[C@@H]6O[C@@H]6O[C@H](CO)[C@@H](O[C@@H]7O[C@H](CO[C@]8(C(=O)O)C[C@H](O)[C@@H](NC(C)=O)[C@H]([C@H](O)[C@H](O)CO)O8)[C@H](O)[C@H](O)[C@H]7O)[C@H](O)[C@H]6NC(C)=O)[C@@H]5O)[C@H](O)[C@H]4NC(C)=O)[C@H](O)[C@H]3NC(C)=O)C2=O)CSSC[C@@H](C(=O)N[C@@H](CC(N)=O)C(=O)N[C@@H](CO)C(=O)N[C@@H](Cc2ccccc2)C(=O)N[C@@H](CCCNC(=N)N)C(=O)N[C@@H](Cc2ccc(O)cc2)C(=O)O)NC(=O)CNC(=O)[C@H](CC(C)C)NC(=O)CNC(=O)[C@H](CO)NC(=O)[C@H](CCC(N)=O)NC(=O)[C@H](C)NC(=O)CNC1=O (stereo partly shown) [Compound 2-31, SG-(SG-)Gln*-Mal-PEG(3)-hANP(1-28)]",0.31,,
"CC[C@H](C)[C@@H]1NC(=O)[C@H](CCCNC(=N)N)NC(=O)[C@H](CC(=O)O)NC(=O)[C@H](CCSC)NC(=O)[C@H](CCCNC(=N)N)NC(=O)CNC(=O)CNC(=O)[C@H](Cc2ccccc2)NC(=O)[C@@H](NC(=O)[C@H](CO)NC(=O)[C@H](CO)NC(=O)[C@H](CCCNC(=N)N)NC(=O)[C@H](CCCNC(=N)N)NC(=O)[C@H](CC(C)C)NC(=O)[C@H](CO)NC(=O)CCOCCOCCOCCOCCOCCOCCOCCOCCOCCOCCOCCOCCNC(=O)CCOCCOCCOCCOCCOCCOCCOCCOCCOCCOCCOCCOCCNC(=O)[C@H](CC(=O)N[C@@H]2O[C@H](CO)[C@@H](O[C@@H]3O[C@H](CO)[C@@H](O[C@@H]4O[C@H](CO[C@H]5O[C@H](CO)[C@@H](O)[C@H](O)[C@@H]5O[C@@H]5O[C@H](CO)[C@@H](O[C@@H]6O[C@H](CO[C@]7(C(=O)O)C[C@H](O)[C@@H](NC(C)=O)[C@H]([C@H](O)[C@H](O)CO)O7)[C@H](O)[C@H](O)[C@H]6O)[C@H](O)[C@H]5NC(C)=O)[C@@H](O)[C@H](O[C@H]5O[C@H](CO)[C@@H](O)[C@H](O)[C@@H]5O[C@@H]5O[C@H](CO)[C@@H](O[C@@H]6O[C@H](CO[C@]7(C(=O)O)C[C@H](O)[C@@H](NC(C)=O)[C@H]([C@H](O)[C@H](O)CO)O7)[C@H](O)[C@H](O)[C@H]6O)[C@H](O)[C@H]5NC(C)=O)[C@@H]4O)[C@H](O)[C@H]3NC(C)=O)[C@H](O)[C@H]2NC(C)=O)NC(=O)CO[C@@H]2O[C@H](CO)[C@@H](O[C@@H]3O[C@H](CO)[C@@H](O[C@@H]4O[C@H](CO[C@H]5O[C@H](CO)[C@@H](O)[C@H](O)[C@@H]5O[C@@H]5O[C@H](CO)[C@@H](O[C@@H]6O[C@H](CO[C@]7(C(=O)O)C[C@H](O)[C@@H](NC(C)=O)[C@H]([C@H](O)[C@H](O)CO)O7)[C@H](O)[C@H](O)[C@H]6O)[C@H](O)[C@H]5NC(C)=O)[C@@H](O)[C@H](O[C@H]5O[C@H](CO)[C@@H](O)[C@H](O)[C@@H]5O[C@@H]5O[C@H](CO)[C@@H](O[C@@H]6O[C@H](CO[C@]7(C(=O)O)C[C@H](O)[C@@H](NC(C)=O)[C@H]([C@H](O)[C@H](O)CO)O7)[C@H](O)[C@H](O)[C@H]6O)[C@H](O)[C@H]5NC(C)=O)[C@@H]4O)[C@H](O)[C@H]3NC(C)=O)[C@H](O)[C@H]2NC(C)=O)CSSC[C@@H](C(=O)N[C@@H](CC(N)=O)C(=O)N[C@@H](CO)C(=O)N[C@@H](Cc2ccccc2)C(=O)N[C@@H](CCCNC(=N)N)C(=O)N[C@@H](Cc2ccc(O)cc2)C(=O)O)NC(=O)CNC(=O)[C@H](CC(C)C)NC(=O)CNC(=O)[C@H](CO)NC(=O)[C@H](CCC(N)=O)NC(=O)[C@H](C)NC(=O)CNC1=O [Compound 2-28, SG-(SG-)Asn-PEG(11)-PEG(11)-hANP(1-28)]",0.31,,
[(SG-)Cys-Gly]5-hANP(1-28) [Compound 2-17],,35,0.70
